Laboratory results taken from patent US9422241B2, “Demethylpenclomedine analogs and their use as anti-cancer agents” (priority 2005, dated 2016).
“And” between values parts separate entries of the source, which are not always exact repeats. Identical values can stand only once. “Also recorded” adds a separate entry of the source. Like-named read-outs stand apart in the source and are kept apart here.

Legend:
KG breast CA = assay: in vitro cytotoxic activity against KG breast cancer explants; format: cell-based, human
From the text: (§1) In one embodiment, preferred therapeutic agents are identified herein by assessing their in vitro cytotoxic activity against cultured model cancer cell lines. […] Suitable cell lines against which the disclosed compounds may be assessed are well known to those of skill in the art and include, by way of example, KG breast CA, LM breast CA and 9L rat glioma. […] The KG breast cancer explants were obtained from surgical biopsies of chest wall metastases from breast cancer. The patient had failed on extensive standard and experimental chemo/hormone and radiation therapy protocols. Minced biopsy specimens were grown in RPMI plus 10% FBS with antibiotics at 37° C. and 5% CO2 atmosphere. DM-CHOC-PEN was tested at 0.5-5 μg/mL concentrations in medium and incubated for 24 hrs.

LM breast CA = assay: in vitro cytotoxic activity against LM breast CA; format: cell-based
From the text: as §1

9L rat glioma = assay: in vitro cytotoxic activity against 9L rat glioma; format: cell-based
From the text: as §1

U251 GBM = format: in vivo; conditions: for ILS (percentage increased length of survival in days vs. control): U251 GBM in cerebrum, IP qd 1-5, dose not given; for LTC (long-term cure, >30-35 days): U251 GBM, cured/animals
Protocol: (§2) U251 and D54 tumors, 10^6 cultured cells in 0.03 ml volume were injected via a 25-gauge stainless steel 0.25 inch needle into the right cerebrum with angling toward the center of the brain. […] Doses varied to include an ca LD10 as described above for the MX-1 tumor. BCNU was used clinically to treated advanced gliomas and will be used as a positive control at optimal doses of 17, 10 and 6 mg/kg on a qd 1-5 schedule, since it is also the clinical standard for brain tumors and is very active against this tumor model. DM-PEN at 60, 90 and 135 mg/kg on the same schedule was included as a comparative control. Antitumor activity was assessed on the basis of survival, with the medial day of death of the controls (10 mice) typically being ca. 30-35 days. The in vivo tumor inhibition results are recorded in Table 3.

D54 Glioblastoma = assay: antitumor evaluation vs. intracerebrally implanted D54 glioblastoma xenograft; format: in vivo, mice; conditions: D54 IC, 200 mg/kg IP q1d x 5d
Protocol: as §2

mice [1] = assay: acute IV toxicity in the mouse (single dose); format: in vivo; conditions: for Observations (mortality): 5 M 5 F
Protocol: This example describes the toxicity of DM-CHOC-PEN to mice as administered via intravenous injections and oral gavage. For the intravenous study, the dose range-finding phase consisted of five treatment groups (one male mouse/group) that received the test article as a single dose at respective dose levels of 50 (dose volume of 5 mL/kg), 100 (dose volume of 10 mL/kg), 150 (dose volume of 15 mL/kg), 250 (dose volume of 25 mL/kg), and 500 mg/kg (intended total dose volume of 50 mL/kg). The 500 mg/kg dose was intended to be a split dose that was to be administered in equal fractions (25 mL/kg/dose) approximately four hours apart (mortality precluded administration of the second portion of the dose). An additional group (one male mouse) served as the control and received the vehicle, soybean oil, at a dose volume of 25 mL/kg using the same route of administration as the treated groups. On Day 4, following the three-day observation period, all surviving dose range-finding animals were euthanized and discarded.
The main study phase consisted of five treatment groups (five mice/sex/group) that received a single dose of the test article at respective dose levels of 50, 100, 200, 400, and 600 mg/kg. An additional group (five mice/sex) served as the control and received the vehicle, 0.3% Klucel+1.92% Tween® 80, using the same dosing regimen as the treated groups. All doses were at a constant volume of 25 mL/kg.
Observations for mortality, morbidity, and the availability of food and water were conducted twice daily for all animals. Observations for clinical signs were conducted daily during the study (approximately one and four hours post-dose on Day 1 and then once daily). Body weights were measured on all animals after receipt, prior to randomization and on Day 1. In addition, body weights were measured for all surviving main study phase animals on Days 7 and 14. Macroscopic evaluations were performed on each main study phase animal at necropsy (Day 15).

Beagle dogs = assay: acute IV toxicity in the dog; format: in vivo; conditions: for Observations (mortality): 2 M 2 F
Protocol: This example describes the acute toxicity of DM-CHOC-PEN in dogs. An acute study was performed in adult Beagle dogs, which consisted of: DM-CHOC-PEN administered once IV. Sixteen (16) adult beagle dogs (8 male and 8 female) divided into three groups received a single intravenous injection of DM-CHOC-PEN. The DM-CHOC-PEN was administered in 0.3% Klucel+1.92% Tween® 80, The results are recorded in Table 6.

[2] = therapeutic studies (not specified further); format: in vivo
mice [3] = assay: acute IV toxicity in the mouse (single dose); format: in vivo; conditions: Mouse CD2F1, 12 F, 21 days
mice [4] = assay: sub-acute oral mouse toxicity study; conditions: daily for five days, 800-2000 mg/kg
Protocol: Sub-acute oral mouse toxicity study was conducted at MPI Research, Mattawan, Mich., under GLP conditions in male/female mice.

MX-1 Breast Cancer = assay: antitumor evaluation vs. MX-1 breast cancer xenograft
[5] = system: patients with advanced solid tumors; conditions: one hour infusion for 5 consecutive days; dysmetria, ataxia, vertigo; cited from earlier work

Molecule: 4-Demethyl cholesteryloxycarbonylpenclomedine [DM-CHOC-PEN]
- in vitro IC50 (KG breast CA; KG breast CA): 0.7±0.4 micrograms/mL
- IC50 (KG breast CA; KG breast cancer explants, 0.5-5 μg/mL in medium, incubated 24 hrs): 1.1 ± 0.5 µg/mL
- in vitro IC50 (LM breast CA): 1.0±0.5 micrograms/mL
- in vitro IC50 (9L rat glioma): 1.1±0.4 micrograms/mL
- neurotoxicity (U251 GBM; DM-CHOC-PEN treatment regimen in the animal studies): did not demonstrate neurotoxicity
- long-term survivors (U251 GBM; Table 3, U251): 20%
- ILS (percentage increased length of survival in days vs. control) (U251 GBM; Table 3): 29%
- LTC (long-term cure, >30-35 days) (U251 GBM; Table 3): ⅕
- increase in survival compared to DM-PEN (U251 GBM; U251, IP daily x 5 days): two-fold
- tumor burden reduction (U251 GBM; U251, IP daily x 5 days): log107
- % Increase in Life Span (% ILS) (U251 GBM; U251 IC, 135 mg/kg IP q1d x 5d): +29%
- % Long Term Survivors (% LTS) (U251 GBM; U251 IC, 135 mg/kg IP q1d x 5d, LTS >90 days, 135 mg/kg): 20% and 20 (1/5 CR) %
- weight loss (U251 GBM; U251 xenograft mice, IP daily x 5): no weight loss
- % Increase in Life Span (% ILS) (D54 Glioblastoma): +3%
- % Long Term Survivors (% LTS) (D54 Glioblastoma): 20 (1/5 CR) %
- macroscopic findings at necropsy (mice [1]; Day 15): No macroscopic findings
- LD50 (mice [1]; Mouse, IV single dose): 390 mg/kg
- time until the last death (mice [1]; Mouse, IV, 14-day study): 2 to 14 days
- Comparable Human IV Dosage (mice [1]; estimated from mouse LD10): 39 mg/m^2
- body weight effects (mice [1]; mice surviving the 14-day observation period vs controls): No definitively clear treatment-related body effects
- intravenous LD10 (mice [1]; mice, combined sexes, single dose): 136 mg/kg
- intravenous LD50 (mice [1]; mice, combined sexes, 95% confidence limits 298 to 502 mg/kg): 385 mg/kg
- Observations (mortality) (mice [1]; single IV dose 50 mg/kg, 50 mg/kg): 1 of 10 and 0 M and 1 F died
- Observations (mortality) (mice [1]; single IV dose 100 mg/kg, 100 mg/kg): No animals died; also recorded: No deaths
- Observations (mortality) (mice [1]; single IV dose 200 mg/kg, 200 mg/kg): 1 of 10 and 0 M and 1 F died
- Observations (mortality) (mice [1]; single IV dose 400 mg/kg, 400 mg/kg): 7 of 10 and 4 M and 3 F died
- Observations (mortality) (mice [1]; single IV dose 600 mg/kg, 600 mg/kg): 8 of 10 and 5 M and 3 F died
- clinical signs (mice [1]; single IV dose 50-600 mg/kg, both sexes, generally dose-dependent): decreased activity, rapid/difficult/slow/shallow breathing, limbs splayed, tremors and skin cold to touch
- deaths in dose range-finding phase (mice [1]; single IV dose in soybean oil, at 0, 100, 250 and 500 mg/kg, one male mouse/group): immediate deaths
- Acute IV (LD10) (Beagle dogs; Dog): >30 mg/kg
- LD50 (Beagle dogs; Dog, Beagle, IV single dose, 10 days): >30 mg/kg
- Observations (mortality) (Beagle dogs; IV once 10 mg/kg): No deaths
- Observations (mortality) (Beagle dogs; IV once 20 mg/kg): No deaths
- Observations (mortality) (Beagle dogs; IV once 30 mg/kg): No deaths
- Comparable Human IV Dosage (Beagle dogs; estimated from dog LD10): >600 mg/m^2
- effects directly related to the test article (Beagle dogs; single IV injection 10, 20 and 30 mg/kg): no effects that were directly related to the test article
- dosing range in which responses were seen [2]: 150 to 225 mg/kg
- LD50 (mice [3]): 390 mg/kg
- mortality (mice [4]): Only one death occurred at 800 mg/kg
- seizures (mice [4]): No seizures noted
- clinical observations (mice [4]; similar in controls): some degree of lethargy and unkept appearance
- % Increase in Life Span (% ILS) (MX-1 Breast Cancer; MX-1 IC, 25 mg/kg IP q1d x 5d): +6%
- % Increase in Life Span (% ILS) (MX-1 Breast Cancer; MX-1 IC, 50 mg/kg IP q1d x 5d): +20%
- % Long Term Survivors (% LTS) (MX-1 Breast Cancer; MX-1 IC, printed on the 25 mg/kg line (25 and 50 mg/kg tested), IP q1d x 5d): 17% and 17 (1/6 CR) %
- weight loss (MX-1 Breast Cancer; MX-1 tumor mice, daily dosing for 5 days): no weight loss

Molecule: O=NN(CCCl)C(=O)NCCCl [BCNU, reference compound]
- % ILS (U251 GBM; U251, BCNU positive control): +92%

Molecule: COc1[nH]c(C(Cl)(Cl)Cl)c(Cl)c(=O)c1Cl [DM-PEN, 4-demethylpenclomedine, reference compound]
- activity in vitro (KG breast CA; requires prior activation per the liver): not active in vitro
- ILS (percentage increased length of survival in days vs. control) (U251 GBM; Table 3): 13%
- LTC (long-term cure, >30-35 days) (U251 GBM; Table 3): 0
- complete responders (U251 GBM; Table 4 tumors, daily dosing for 5 days): did not produce any complete responders
- % ILS (U251 GBM; U251 IC, 90 mg/kg IP q1d x 5d): 17%
- % LTS (given as survivors/animals) (U251 GBM; U251 IC, 90 mg/kg IP q1d x 5d): 0/5
- % ILS (MX-1 Breast Cancer; MX-1 IC, 60 mg/kg IP q1d x 5d): 12%
- % LTS (given as survivors/animals) (MX-1 Breast Cancer; MX-1 IC, 60 mg/kg IP q1d x 5d): 0/5

Molecule: COc1nc(C(Cl)(Cl)Cl)c(Cl)c(OC)c1Cl [PEN, 3,5-dichloro-4,6-dimethoxy-2-(trichloromethyl)-pyridine]
- neurotoxicity in clinical trials [5]: dose-limiting neurotoxicity was observed
